Results reported in publication PMC4389257, “Structural basis for full-spectrum inhibition of translational functions on a tRNA synthetase” (Nature Communications, 2015).

Biological target: T1, human threonyl-tRNA synthetase (ThrRS) (Homo sapiens, UniProt P26639)
T1 construct: gene TARS1
T1 sequence (P26639 322-723): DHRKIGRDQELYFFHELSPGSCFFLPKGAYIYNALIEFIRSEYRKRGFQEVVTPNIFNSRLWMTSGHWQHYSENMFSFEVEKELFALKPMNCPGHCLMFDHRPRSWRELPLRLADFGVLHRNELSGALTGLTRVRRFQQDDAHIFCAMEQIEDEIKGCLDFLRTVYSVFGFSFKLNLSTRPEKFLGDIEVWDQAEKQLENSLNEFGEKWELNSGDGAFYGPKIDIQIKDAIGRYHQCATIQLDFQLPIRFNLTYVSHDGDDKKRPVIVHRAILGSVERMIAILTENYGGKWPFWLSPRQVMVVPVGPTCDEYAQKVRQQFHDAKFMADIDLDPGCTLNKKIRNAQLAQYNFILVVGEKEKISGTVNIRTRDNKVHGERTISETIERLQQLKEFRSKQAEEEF
Assay: X-ray co-crystal structure ([…] Å); aminoacylation assay Ki
Type: biochemical

C[C@@H]1C[C@H](C)C[C@H](C)[C@@H](O)CC(=O)O[C@H]([C@@H]2CCC[C@H]2C(=O)O)C/C=C/C=C(/C#N)[C@H](O)[C@@H](C)C1 [BN, Borrelidin]
Ki: ~7 nM
